Drawing on the RepoRT retention time repository (doi:10.1016/j.foodchem.2021.129757), this text covers LC retention time for 5 compounds.

A short description of the first data set: RP, Agilent ZORBAX Eclipse XDB-C18, 100 × 2.1 mm, 1.8 µm, 50 °C, 0.4 mL/min, estimated dead time 0.55 min; A: water + 0.1% formic acid, pH 3; B: methanol + 0.1% formic acid, pH 3; gradient (min/%B) 0/2 10/100 14.5/100 14.51/2 16.5/2. The note with it: stereoisomer not certain.
With `CC1OC(OC2C(O)C(OCCc3ccc(O)c(O)c3)OC(CO)C2OC(=O)C=Cc2ccc(O)c(O)c2)C(O)C(O)C1O` (stereo not drawn) [Verbascoside], the LC retention time was 4.86 min.

As for `COc1cc(-c2oc3cc(O)cc(O)c3c(=O)c2O)ccc1O` [Isorhamnetin], the LC retention time is 7.05 min.

Take `CC1OC(OC2C(Oc3cc(O)c4c(c3)OC(c3ccc(O)cc3)CC4=O)OC(CO)C(O)C2O)C(O)C(O)C1O` (stereo not drawn) [Naringin]: the LC retention time is 5.22 min.

Turning to `O=C(CCc1ccc(O)cc1)c1c(O)cc(O)cc1O` [Phloretin], the LC retention time was 6.47 min.

A short description of the next data set: RP, Agilent ZORBAX RRHD Eclipse Plus C18, 50 × 2.1 mm, 1.8 µm, 30 °C, 0.4 mL/min, estimated dead time 0.28 min; A: water + 0.1% formic acid, pH 3; B: acetonitrile + 0.1% formic acid, pH 3; gradient (min/%B) 0/1 5/10 8/25 9.1/99 10/99 12/99. As to conditions: stereoisomer not certain.
`COc1cc(-c2oc3cc(O)cc(O)c3c(=O)c2O)ccc1O` [Isorhamnetin]: the LC retention time was 9.29 min.

Regarding `O=C(CCc1ccc(O)cc1)c1c(O)cc(O)cc1O` [Phloretin], the LC retention time is 9.3 min.

Another data set is described as follows: Other, Phenomenex Kinetex PFP, 100 × 4.6 mm, 5 µm, 45 °C, 0.6 mL/min, estimated dead time 1.8 min; A: water + 0.1% trifluoroacetic acid, pH 2; B: methanol; gradient (min/%B) 0/40 20/72 21/40. As to conditions: stereoisomer not certain.
Regarding `O=c1c(O)c(-c2ccc(OS(=O)(=O)O)c(O)c2)oc2cc(O)cc(O)c12` [Quercetin 4-O-sulfate], the LC retention time was 14.9 min.

With `CC1OC(OC2C(Oc3cc(O)c4c(c3)OC(c3ccc(O)cc3)CC4=O)OC(CO)C(O)C2O)C(O)C(O)C1O` (stereo not drawn) [Naringin], the LC retention time is 9.02 min.

A further data set is described as follows: RP, 150 × 2.1 mm, 2.6 µm, 40 °C, 0.35 mL/min, estimated dead time 0.94 min; A: water + 0.1% formic acid, pH 3; B: acetonitrile + 0.1% formic acid, pH 3; gradient (min/%B) 0/0 1/5 7/45 8.5/80 10.5/80 11/5 12/5. The note with it: stereoisomer not certain.
`O=C(CCc1ccc(O)cc1)c1c(O)cc(O)cc1O` [Phloretin]: the LC retention time is 7.9 min.

Another data set can be described thus: RP, Phenomenex Synergi Hydro-RP, 250 × 2 mm, 4 µm, 25 °C, 0.2 mL/min, estimated dead time 2.5 min; A: water + 0.1% formic acid, pH 3; B: acetonitrile + 0.1% formic acid, pH 3; gradient (min/%B) 0/0.5 7/0.5 12/12.5 25/16.3 47/35 48/65 50/65 50.1/0.5. As to conditions: stereoisomer not certain.
On to `O=C(CCc1ccc(O)cc1)c1c(O)cc(O)cc1O` [Phloretin], for which the LC retention time was 50.6 min.

The next data set can be described thus: RP, 100 × 0.5 mm, 2.7 µm, 45 °C, 0.015 mL/min, estimated dead time 0.83 min; A: water + 0.9% formic acid; B: acetonitrile + 0.9% formic acid; gradient (min/%B) 0/1 0.5/1 4/95 4.5/1 5/1. The note with it: stereoisomer not certain.
As for `CC1OC(OC2C(O)C(OCCc3ccc(O)c(O)c3)OC(CO)C2OC(=O)C=Cc2ccc(O)c(O)c2)C(O)C(O)C1O` (stereo not drawn) [Verbascoside], the LC retention time was 2.44 min.

For `O=c1c(O)c(-c2ccc(OS(=O)(=O)O)c(O)c2)oc2cc(O)cc(O)c12` [Quercetin 4-O-sulfate], the LC retention time is 2.82 min.

As for `COc1cc(-c2oc3cc(O)cc(O)c3c(=O)c2O)ccc1O` [Isorhamnetin], the LC retention time was 3.24 min.

In the case of `CC1OC(OC2C(Oc3cc(O)c4c(c3)OC(c3ccc(O)cc3)CC4=O)OC(CO)C(O)C2O)C(O)C(O)C1O` (stereo not drawn) [Naringin], the LC retention time is 2.56 min.

On to `O=C(CCc1ccc(O)cc1)c1c(O)cc(O)cc1O` [Phloretin], for which the LC retention time was 3.13 min.

The nature of another data set: RP, 150 × 2.1 mm, 2.6 µm, 40 °C, 0.35 mL/min, estimated dead time 0.94 min; A: water + 0.1% formic acid, pH 3; B: acetonitrile + 0.1% formic acid, pH 3; gradient (min/%B) 0/0 1/0 12.5/100 14/100 14.2/0 15/0. The note with it: stereoisomer not certain.
For `O=C(CCc1ccc(O)cc1)c1c(O)cc(O)cc1O` [Phloretin], the LC retention time is 7.51 min.

A short description of a further data set: RP, Waters Atlantis T3, 100 × 2.1 mm, 3 µm, 40 °C, 0.3 mL/min, estimated dead time 0.73 min; A: water + 0.1% trifluoroacetic acid, pH 2; B: acetonitrile + 0.1% trifluoroacetic acid, pH 2; gradient (min/%B) 0/10 1/10 6/40 7/50 8/50 14/70 16/80 20/10 25/10. As to conditions: stereoisomer not certain.
With `CC1OC(OC2C(O)C(OCCc3ccc(O)c(O)c3)OC(CO)C2OC(=O)C=Cc2ccc(O)c(O)c2)C(O)C(O)C1O` (stereo not drawn) [Verbascoside], the LC retention time was 7.34 min.

For the compound `CC1OC(OC2C(Oc3cc(O)c4c(c3)OC(c3ccc(O)cc3)CC4=O)OC(CO)C(O)C2O)C(O)C(O)C1O` (stereo not drawn) [Naringin], the LC retention time was 7.79 min.

For `O=C(CCc1ccc(O)cc1)c1c(O)cc(O)cc1O` [Phloretin], the LC retention time was 10 min.

The nature of the next data set: RP, Phenomenex Luna Omega Polar C18, 100 × 2.1 mm, 1.6 µm, 40 °C, 0.5 mL/min, estimated dead time 0.44 min; A: water + 0.1% formic acid + 10 mM ammonium formate; B: acetonitrile; gradient (min/%B) 0/5 8/20 10/100 12/100 12.1/5 14/5. As to conditions: stereoisomer not certain.
As to `CC1OC(OC2C(O)C(OCCc3ccc(O)c(O)c3)OC(CO)C2OC(=O)C=Cc2ccc(O)c(O)c2)C(O)C(O)C1O` (stereo not drawn) [Verbascoside], the LC retention time was 8.28 min.

For the compound `O=c1c(O)c(-c2ccc(OS(=O)(=O)O)c(O)c2)oc2cc(O)cc(O)c12` [Quercetin 4-O-sulfate], the LC retention time is 9.3 min.

`COc1cc(-c2oc3cc(O)cc(O)c3c(=O)c2O)ccc1O` [Isorhamnetin]: the LC retention time is 9.84 min.

Turning to `CC1OC(OC2C(Oc3cc(O)c4c(c3)OC(c3ccc(O)cc3)CC4=O)OC(CO)C(O)C2O)C(O)C(O)C1O` (stereo not drawn) [Naringin], the LC retention time is 8.96 min.

`O=C(CCc1ccc(O)cc1)c1c(O)cc(O)cc1O` [Phloretin]: the LC retention time is 9.58 min.

A short description of the next data set: RP, Waters ACQUITY UPLC BEH Shield RP18, 100 × 2.1 mm, 1.7 µm, 30 °C, 0.6 mL/min, estimated dead time 0.37 min; A: water + 0.1% formic acid, pH 3; B: acetonitrile + 0.1% formic acid, pH 3; gradient (min/%B) 0/0 2/0 7/10 22/95 22.1/0 26/0. As to conditions: stereoisomer not certain.
As for `CC1OC(OC2C(O)C(OCCc3ccc(O)c(O)c3)OC(CO)C2OC(=O)C=Cc2ccc(O)c(O)c2)C(O)C(O)C1O` (stereo not drawn) [Verbascoside], the LC retention time was 12.6 min.

Regarding `O=c1c(O)c(-c2ccc(OS(=O)(=O)O)c(O)c2)oc2cc(O)cc(O)c12` [Quercetin 4-O-sulfate], the LC retention time is 19.5 min.

As to `COc1cc(-c2oc3cc(O)cc(O)c3c(=O)c2O)ccc1O` [Isorhamnetin], the LC retention time is 16.4 min.

`CC1OC(OC2C(Oc3cc(O)c4c(c3)OC(c3ccc(O)cc3)CC4=O)OC(CO)C(O)C2O)C(O)C(O)C1O` (stereo not drawn) [Naringin]: the LC retention time was 13 min.

`O=C(CCc1ccc(O)cc1)c1c(O)cc(O)cc1O` [Phloretin]: the LC retention time is 15.6 min.

A further data set is described as follows: RP, Waters ACQUITY UPLC HSS T3, 100 × 2.1 mm, 1.8 µm, 30 °C, 0.4 mL/min, estimated dead time 0.55 min; A: water + 0.1% formic acid, pH 3; B: acetonitrile + 0.1% formic acid, pH 3; gradient (min/%B) 0/0 2/0 15/100 22/100 22.1/0 26/0. As to conditions: stereoisomer not certain.
As to `CC1OC(OC2C(O)C(OCCc3ccc(O)c(O)c3)OC(CO)C2OC(=O)C=Cc2ccc(O)c(O)c2)C(O)C(O)C1O` (stereo not drawn) [Verbascoside], the LC retention time is 9.05 min.

Consider `O=c1c(O)c(-c2ccc(OS(=O)(=O)O)c(O)c2)oc2cc(O)cc(O)c12` [Quercetin 4-O-sulfate], for which the LC retention time is 10.6 min.

Take `COc1cc(-c2oc3cc(O)cc(O)c3c(=O)c2O)ccc1O` [Isorhamnetin]: the LC retention time is 11.7 min.

Turning to `CC1OC(OC2C(Oc3cc(O)c4c(c3)OC(c3ccc(O)cc3)CC4=O)OC(CO)C(O)C2O)C(O)C(O)C1O` (stereo not drawn) [Naringin], the LC retention time was 9.46 min.
